Data as given in publication PMC4594013 (Frontiers in Pharmacology, 2015).
Entries after “also recorded” stand apart in the source; their conditions may differ. Structures can show the parent of a compound that is named as a salt.

Experiments:
[1] = target: Na-dicarboxylate cotransporter 3 (NaDC3) (Homo sapiens, UniProt Q8WWT9); conditions: CHO-NaDC3 cells; [14C]succinate 18.5 μM; 5 min; single experiment (n = 1)
Procedure: All experiments examining cellular radiolabeled compound uptake were conducted using cells grown to confluence in 24-well flat bottom plates. The transport solution consisted of WB (room temperature) containing radiolabeled compound and the uptake period for all experiments was at an initial rate time point of 5 min. [^3H]Penciclovir served as the probe OAT2 substrate. We also examined the uptake of [^3H]para-aminohippurate, [^3H]estrone-3-sulfate, [^14C]glutarate, [^14C]succinate, [^3H]paclitaxel, and [^3H]dehydroepiandrosterone sulfate by OAT2 since published studies indicate that they are substrates of the transport protein ([Sun et al., 2001]; [Kobayashi et al., 2005a]). […] For all cellular uptake experiments, the medium was aspirated and the cells were rinsed once with WB (0.3 ml). Following the uptake period, cells were washed three times with ice-cold WB (0.5 ml each wash). After aspirating the final wash the cells were lysed in 0.5 N NaOH/1% SDS (0.4 ml) for ∼30 min on an orbital shaker. 1 N HCl (0.2 ml) was then added to neutralize the NaOH, and the cell lysates (0.5 ml) were transferred to scintillation vials containing liquid scintillation cocktail (CytoScint ES, MP Biomedicals). Cellular radioactivity content was determined with a Beckman LS6500 liquid scintillation counter. Protein content was determined using the bicinchoninic acid method. […]

[2] = target: T1, OAT2-tv2 (Homo sapiens, UniProt Q9Y694); parameters: method as in Kobayashi et al., 2005a; conditions: OAT2-tv2 in Xenopus oocytes pre-loaded with 5 mM compound; ref Kobayashi et al., 2005a; cited from earlier work
T1 sequence (Q9Y694 1-548): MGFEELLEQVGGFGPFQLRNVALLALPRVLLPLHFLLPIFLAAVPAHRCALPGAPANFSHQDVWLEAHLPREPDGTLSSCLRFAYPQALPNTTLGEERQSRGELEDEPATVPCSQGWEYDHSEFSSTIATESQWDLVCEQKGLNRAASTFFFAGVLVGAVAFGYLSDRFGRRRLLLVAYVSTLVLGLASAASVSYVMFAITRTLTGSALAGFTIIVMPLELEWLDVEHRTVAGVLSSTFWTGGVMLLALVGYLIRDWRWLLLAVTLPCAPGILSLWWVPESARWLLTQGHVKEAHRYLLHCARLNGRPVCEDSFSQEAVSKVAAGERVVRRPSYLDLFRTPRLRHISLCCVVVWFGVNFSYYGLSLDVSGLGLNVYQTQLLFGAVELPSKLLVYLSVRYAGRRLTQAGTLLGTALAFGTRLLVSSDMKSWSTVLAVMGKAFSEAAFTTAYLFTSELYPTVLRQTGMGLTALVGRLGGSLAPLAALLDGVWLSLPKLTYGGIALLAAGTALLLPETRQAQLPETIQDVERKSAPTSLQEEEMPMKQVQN

[3] = system: OAT2-tv3; parameters: method as in Sato et al., 2010; conditions: OAT2-tv3 in HEK cells pre-loaded with succinate (100 mM); ref Sato et al., 2010; cited from earlier work
[4] = target: T2, OAT2-tv1 (Homo sapiens, UniProt Q9Y694); test: Cellular uptake of radiolabeled compounds by CHO, HEK or MDCK cells stably expressing OAT2-tv1
T2 sequence (Q9Y694 1-546 isoform Q9Y694-2): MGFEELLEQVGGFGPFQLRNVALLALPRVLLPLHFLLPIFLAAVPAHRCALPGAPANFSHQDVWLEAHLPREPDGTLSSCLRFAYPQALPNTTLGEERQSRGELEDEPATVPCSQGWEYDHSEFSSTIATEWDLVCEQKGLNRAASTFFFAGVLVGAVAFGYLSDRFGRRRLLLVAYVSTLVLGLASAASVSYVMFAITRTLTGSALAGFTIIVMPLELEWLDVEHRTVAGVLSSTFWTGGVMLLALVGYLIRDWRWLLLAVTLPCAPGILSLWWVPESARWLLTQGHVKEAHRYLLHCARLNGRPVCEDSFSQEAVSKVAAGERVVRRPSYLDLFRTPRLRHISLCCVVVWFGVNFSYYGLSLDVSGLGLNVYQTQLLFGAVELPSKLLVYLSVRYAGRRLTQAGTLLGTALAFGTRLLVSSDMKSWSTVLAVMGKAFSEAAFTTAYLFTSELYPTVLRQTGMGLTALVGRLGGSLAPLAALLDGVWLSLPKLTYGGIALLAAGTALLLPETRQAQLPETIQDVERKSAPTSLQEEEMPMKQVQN
Procedure: (§1) All experiments examining cellular radiolabeled compound uptake were conducted using cells grown to confluence in 24-well flat bottom plates. The transport solution consisted of WB (room temperature) containing radiolabeled compound and the uptake period for all experiments was at an initial rate time point of 5 min. [^3H]Penciclovir served as the probe OAT2 substrate. We also examined the uptake of [^3H]para-aminohippurate, [^3H]estrone-3-sulfate, [^14C]glutarate, [^14C]succinate, [^3H]paclitaxel, and [^3H]dehydroepiandrosterone sulfate by OAT2 since published studies indicate that they are substrates of the transport protein ([Sun et al., 2001]; [Kobayashi et al., 2005a]). […] For all cellular uptake experiments, the medium was aspirated and the cells were rinsed once with WB (0.3 ml). Following the uptake period, cells were washed three times with ice-cold WB (0.5 ml each wash). After aspirating the final wash the cells were lysed in 0.5 N NaOH/1% SDS (0.4 ml) for ∼30 min on an orbital shaker. 1 N HCl (0.2 ml) was then added to neutralize the NaOH, and the cell lysates (0.5 ml) were transferred to scintillation vials containing liquid scintillation cocktail (CytoScint ES, MP Biomedicals). Cellular radioactivity content was determined with a Beckman LS6500 liquid scintillation counter. Protein content was determined using the bicinchoninic acid method. See the Figure and Table Legends for additional details describing the experimental conditions used.
FIGURE 2 Cellular accumulation of [^3H]penciclovir (A), [^3H]para-aminohippurate (B), [^3H]estrone-3-sulfate (C), or [^14C]glutarate (D) by parental CHO, HEK, or MDCK cells, or CHO, HEK, or MDCK cells stably expressing either OAT2-tv1 or OAT2-tv2. The concentration of [^3H]penciclovir in the transport solution was 0.1 μM for CHO and MDCK cell experiments, and 0.5 μM for HEK cell experiments. The concentrations of [^3H]para-aminohippurate, [^3H]estrone-3-sulfate and [^14C]glutarate were 8 nM, 10 nM, and 18 μM, respectively. Uptake was conducted for 5 min at room temperature.
FIGURE 4 Cellular accumulation of [^14C]succinate (18.5 μM) by CHO parental cells, CHO-OAT2-tv1 cells or CHO cells stably expressing the Na-dicarboxylate cotransporter 3 (NaDC3). Uptake was conducted for 5 min. Values are the mean ± standard error of the mean of four experiments for CHO parental and CHO-OAT2-tv1 cells. A single uptake experiment was performed with CHO-NaDC3 cells.

[5] = target: T2, OAT2-tv1; test: Inhibition of [3H]penciclovir uptake into CHO-OAT2-tv1 cells; format: cell-based; conditions: CHO-OAT2-tv1 cells; test compound 1 mM; [3H]penciclovir ∼30 nM; 5 min
Procedure: as §1
The concentration of each Kreb’s cycle intermediate was 1 mM. Uptake was conducted for 5 min.

[6] = target: T2, OAT2-tv1; parameters: The open reading frame of the human ortholog of OAT2 transcript variant 1 (OAT2-tv1) containing 546 amino acids was amplified from human kidney cDNA; expressed in transfected cells; host or cells: CHO Flp-In (A1); CHO, HEK and MDCK Flp-In (A2); conditions: ref Babelova et al., 2015; cited from earlier work
[7] = system: OAT2 (sequence not given); conditions: variant unclear; ref Sun et al., 2001; cited from earlier work
[8] = system: CHO parental cells; test: Cellular accumulation of radiolabeled compounds in CHO parental cells; format: cell-based, Chinese hamster; conditions: [3H]dehydroepiandrosterone sulfate 12 nM, [3H]paclitaxel 22 nM, n = 3

Na-dicarboxylate cotransporter 3 (NaDC3), sequence (Q8WWT9 whole entry, species assumed): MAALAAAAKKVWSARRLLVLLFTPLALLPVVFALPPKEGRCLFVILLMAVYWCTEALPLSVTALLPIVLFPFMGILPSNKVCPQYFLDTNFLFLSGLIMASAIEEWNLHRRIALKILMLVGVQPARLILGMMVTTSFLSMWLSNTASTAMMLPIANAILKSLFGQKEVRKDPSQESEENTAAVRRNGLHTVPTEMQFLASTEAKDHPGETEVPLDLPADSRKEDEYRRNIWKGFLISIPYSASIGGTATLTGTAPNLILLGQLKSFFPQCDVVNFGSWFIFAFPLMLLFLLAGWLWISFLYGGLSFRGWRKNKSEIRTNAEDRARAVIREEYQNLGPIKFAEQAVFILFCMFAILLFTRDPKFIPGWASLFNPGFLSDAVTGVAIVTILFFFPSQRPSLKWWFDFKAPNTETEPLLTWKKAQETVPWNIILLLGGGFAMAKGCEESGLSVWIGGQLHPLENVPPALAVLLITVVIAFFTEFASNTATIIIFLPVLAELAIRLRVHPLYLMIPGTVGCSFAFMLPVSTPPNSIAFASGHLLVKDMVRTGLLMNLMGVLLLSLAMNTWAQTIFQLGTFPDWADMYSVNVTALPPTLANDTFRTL

Structure (SMILES): O=C(O)CCC(=O)O [succinate]
- uptake of [14C]succinate, fold higher than control [1]: ~30 fold
- stimulation of estrone-3-sulfate uptake by pre-loading [2]: 2.1 fold
- stimulation of urate uptake by pre-loading [3]: failed to observe stimulation
- uptake of [14C]succinate compared to parental CHO cells ([4]; CHO-OAT2-tv1 cells, [14C]succinate 18.5 μM, 5 min): not different than uptake into the parental CHO cells; also recorded: no significant difference; also recorded: not transported
- cis-inhibition of penciclovir uptake [5]: none of the Kreb’s cycle intermediates tested, including succinate and fumarate, cis-inhibited penciclovir uptake

Structure (SMILES): O=C(O)CC(O)(CC(=O)O)C(=O)O [citrate]
- cis-inhibition of penciclovir uptake [5]: none of the Kreb’s cycle intermediates tested, including succinate and fumarate, cis-inhibited penciclovir uptake
- cis-inhibition of OAT2-tv1-mediated cGMP transport [6]: did not observe cis-inhibition

Structure (SMILES): C[C@]12CC[C@H](OS(=O)(=O)O)CC1=CC[C@@H]1[C@@H]2CC[C@]2(C)C(=O)CC[C@@H]12 [dehydroepiandrosterone sulfate]
- transport by OAT2 [7]: did not observe transport
- cellular accumulation ([4]; CHO-OAT2-tv1 cells, [3H]dehydroepiandrosterone sulfate 12 nM, [3H]paclitaxel 22 nM, n = 3): 11.0 ± 0.54 fmoles ⋅ mg protein^-1 ⋅ min^-1
- mediated transport by OAT2-tv1 ([4]; expressed in CHO cells): unable to show mediated transport
- cellular accumulation [8]: 10.3 ± 1.1 fmoles ⋅ mg protein^-1 ⋅ min^-1

Structure (SMILES): O=C(O)/C=C(/CC(=O)O)C(=O)O [cis-aconitate]
- cis-inhibition of penciclovir uptake [5]: none of the Kreb’s cycle intermediates tested, including succinate and fumarate, cis-inhibited penciclovir uptake
- cis-inhibition of OAT2-tv1-mediated cGMP transport [6]: did not observe cis-inhibition
